Consider 4 compounds from patent publication US20190030023A1, “METHODS FOR TREATING CANCER” (X4 Pharmaceuticals, Inc., priority 2016, published 2019).

Data set [1] deals with unresectable or metastatic melanoma. The settings on record: Phase 3 trial, P<0.001 pembrolizumab vs ipilimumab; cited from earlier work.
In data set [2] the test system is murine models of melanoma, renal cell carcinoma, and ovarian cancer. The settings on record: cited from earlier work.
In data set [3] the test system is pancreatic adenocarcinoma. Conditions: cited from earlier work.
Data set [4] in a line: Solubility of X4P-001 by pH and in water. The data set is classed as physicochemical. The settings on record: for solubility: aqueous buffer.
A short description of another data set: in vivo. Conditions: terminal half-life. On the procedure: In certain embodiments, the dosage composition may be provided twice a day in divided dosage, approximately 12 hours apart. In other embodiments, the dosage composition may be provided once daily. […] Dosage for oral administration may be from about 100 mg to about 1200 mg once or twice per day.

For data set [5] the following is noted: Phase 1 and 2a trials; suggests high tissue penetrance; cited from earlier work.
Data set [6] deals with circulating white blood cells (WBCs). The settings on record: Phase 1 and 2a trials, oral administration; cited from earlier work.

Converted amounts (≈) assume the structure as drawn. A value given as a limit tells only on which side of the number the result lay.

As to ipilimumab: anti-CTLA-4 antibody, the objective response rate in data set [1] was 12%.

Regarding “Pembrolizumab: humanized IgG4 kappa monoclonal antibody that blocks the interaction between PD-1 and its ligands, PD-L1 and PD-L2”, in data set [1], the objective response rate is given as 33%.

With `c1cc(CN2CCCNCCNCCCNCC2)ccc1CN1CCCNCCNCCCNCC1` [Plerixafor], the “anti-tumor activity, including decreased metastasis and increased overall survival” value in data set [2] is reported as “significant anti-tumor activity”. Moreover, the “T-cell accumulation among the cancer cells” value in data set [3] (CXCR4 antagonist alone) is listed as “induced rapid T-cell accumulation”. For the same compound, the tumor growth entry in data set [3] (in combination with anti-PD-L1) is reported as “synergistically decreased tumor growth”.

As to `NCCCCN(Cc1nc2ccccc2[nH]1)[C@H]1CCCc2cccnc21` [X4P-001], the solubility (usually the concentration that dissolves in the medium under given conditions) in data set [4] (pH 9.0 (sparingly soluble)) is 10.7 mg/mL (≈ 30.6 mM); in data set [4] (pH 10.0 (slightly soluble)), 2 mg/mL (≈ 5.72 mM); in data set [4] (pH range 3.0 to 8.0 (freely soluble)), over 100 mg/mL. Further, the solubility in water entry in data set [4] (water) is reported as “only slightly soluble”. Besides, the half-life (usually how long it takes for the measured level to halve) in the data set “in vivo” (approximate value) is about 14.5 h; in “in vivo” (range) it was 12 to 24 h. Also, the “volume of distribution (VL)” value in data set [5] was “high”. Further, in data set [6], the “pharmacodynamic activity: changes in circulating white blood cells (WBCs)” value is “dose- and concentration-related changes”. For the same compound, in data set [2], the “anti-tumor activity, including decreased metastasis and increased overall survival” value is “significant anti-tumor activity”.
